# Results from article PMC6100703, “Rapid, simple, and clinically applicable high-performance liquid chromatography method for clinical determination of plasma colistin concentrations” (Journal of Pharmaceutical Health Care and Sciences, 2018).
# Read-outs that look alike come from different tables or passages of the source.
# Legend:
# [1] = Derivative stability (FMOC-Cl derivatives in eluted solution); assay type: physicochemical; settings: mean ± SD; for Refrigerated, recovery relative to freshly prepared samples: 4 °C; for Refrigerated, recovery relative to freshly prepared samples / Room temperature, recovery relative to freshly prepared samples / Frozen, recovery relative to freshly prepared samples: 7 d, HPLC-fluorescence peak area; for Refrigerated, recovery relative to freshly prepared samples / Frozen, recovery relative to freshly prepared samples: dark; for Room temperature, recovery relative to freshly prepared samples: 25 ± 1 °C, normal fluorescent light; for Freeze-thaw, recovery relative to freshly prepared samples: three cycles −23 °C to room temperature on consecutive days; for Frozen, recovery relative to freshly prepared samples: −23 °C, closed glass test tubes
# Method: The derivative stabilities of the samples containing 0.10 and 8.0 μg/mL of the standard colistin solution and the internal standard were evaluated at − 23 (frozen), 4 (refrigerated), and 25 ± 1 °C (room temperature) over 7 d. Freeze-thaw stability was assessed after three complete freeze-thaw cycles (− 23 °C to room temperature) on consecutive days. The stability of the target compounds was presented as the recovery (%) relative to the freshly prepared samples. The solutions at room temperature were exposed to normal fluorescent light, while the frozen and refrigerated samples were stored in a dark refrigerator and were exposed to light only during sampling. The storage temperatures were closely monitored throughout the study.
# [2] = tested on: MDRP with metallo-beta-lactamase (multidrug-resistant Pseudomonas aeruginosa); assay: Minimum inhibitory concentrations for the blood culture isolate of the patient; assay type: cell-based; settings: for MIC: Pseudomonas aeruginosa, read-out: minimum inhibitory concentration
# [3] = Plasma colistin concentration of a haemodialysis patient on CMS therapy (HPLC with fluorescence detection); assay type: in vivo, human; settings: K2-EDTA plasma; for colistin concentration in plasma: HD patient
# Method: HPLC analysis was performed at 25 ± 1 °C under isocratic conditions. All measurements were carried out at excitation and emission wavelengths of 260 nm and 315 nm, respectively, and the column temperature was maintained at 40 °C. The mobile phase consisted of a mixture of acetonitrile/tetrahydrofuran/distilled water (50:14:20, v/v/v) and was delivered at a flow rate of 1.6 mL/min. The sample injection volume was 50 μL.
# Initially, the colistin and the internal standard (netilmicin sulfate, 20 μL) stock solutions were added to a portion of serum (200 μL). Following the addition of methanol (25 μL) and 10% trichloroacetic acid (25 μL) to the sample, it was vortexed for 10 s prior to centrifugation at 13,000 rpm for 5 min. The supernatant was then placed in an additional centrifuge tube and mixed with a 1 M sodium hydroxide solution (10 μL). The sample solution was loaded onto the solid-phase extraction (SPE) cartridge, which had been previously conditioned according to the following procedure.
# SPE C18 cartridges (55 μm, 100 mg/mL; Phenomenex, Torrance, USA) were conditioned using acetone (1 mL) and methanol (1 mL) and equilibrated with 1% carbonate buffer (1 mL). The sample was then applied to the wet cartridge. After passing the sample through the cartridge, it was rinsed with methanol (1 mL) and carbonate buffer (1 mL), followed by a 100 mM FMOC-Cl solution (60 μL) and 90% methanol (3 mL). The derivatives were then eluted into a glass culture tube using acetone (500 μL). The eluted solution was mixed with a 0.6 M boric acid solution (100 μL) prior to vortex-mixing for 10 s, and then the obtained sample was injected into the HPLC system. All procedures were conducted at 25 ± 1 °C.
# (§1) A patient (weight 52 kg, height 153.2 cm) with antineutrophilic cytoplasmic antibody-positive vasculitis undergoing renal replacement (intermittent haemodialysis, HD) was admitted to the hospital for rituximab and steroid pulse therapy. The HD patient’s disease had been complicated by Pneumocystis jiroveci pneumonia, herpes zoster, and MDRP infections. […] With the preliminary information of positive blood cultures, empiric treatment with cefepime (1 g every 12 h) was performed over 5 d. […] In addition, the following treatment parameters were employed: dialysate flow rate, 500 mL/min; blood flow rate, 100 mL/min; membrane surface area, 1.5 m^2; membrane type, APS-15MD New; HD frequency, twice per week; and session duration, 3 h. Samples were collected immediately prior to a dose or immediately prior to the next dose if CMS was not being administered every 24 h. The actual times of CMS administration and blood sampling were recorded. Samples were collected in potassium (K)2-ethylenediaminetetraacetic acid (EDTA)-containing tubes and centrifuged for 15 min within 2 h of collection. The resulting plasma sample was measured on the same day as blood collection. The HD clearance (CLHD) for colistin was calculated every hour during the start and end of the HD session as:
# CMS was administered to the HD patient over 7 d (days 6–12), and six samples of blood were collected between days 7 and 12 of CMS therapy (Fig. 3). The initial sample was collected on day 7 approximately 20 h after the administration of CMS. All other samples were collected ~ 24 h after each dose. On the day of dialysis, the blood samples were collected at the start and end of the HD session.
# [4] = human, in vivo
# Method: as §1, with “as: […]” for “as:”
# [5] = parameters: method as in 2 sources, ref Sorlí et al. [24] ||| ref Garonzik et al. [25]; settings: cited from earlier work
# [6] = tested on: multidrug-resistant Pseudomonas aeruginosa infection; settings: HD patient with MDRP infection; CMS 75 mg every 24 h after loading dose 250 mg, in combination with meropenem 1 g every 24 h; after a few days
# Method: as §1, with “as: […]” for “as:”
# [7] = blood cultures from two peripheral vein sites of the HD patient, MDRP with metallo-beta-lactamase
# [8] = critically ill patients, including those on HD and continuous renal replacement, ref Garonzik et al. [25]
# [9] = patients suffering from nephrotoxicity, ref Sorlí et al. [24]
molecule,measurement,setting,value
"CCN[C@@H]1C[C@H](N)[C@@H](O[C@H]2OC(CN)=CC[C@H]2N)[C@H](O)[C@H]1O[C@H]1OC[C@](C)(O)[C@H](NC)[C@H]1O [Netilmicin, netilmicin]","Refrigerated, recovery relative to freshly prepared samples",[1]; 0.10 μg/mL,104 ± 2%
same,"Room temperature, recovery relative to freshly prepared samples",[1]; 0.10 μg/mL,102 ± 3%
same,"Freeze-thaw, recovery relative to freshly prepared samples",[1]; 0.10 μg/mL,98 ± 3%
same,"Frozen, recovery relative to freshly prepared samples",[1]; 0.10 μg/mL,102 ± 3%
same,"Refrigerated, recovery relative to freshly prepared samples",[1]; 8.00 μg/mL,101 ± 2%
same,"Room temperature, recovery relative to freshly prepared samples",[1]; 8.00 μg/mL,103 ± 2%
same,"Freeze-thaw, recovery relative to freshly prepared samples",[1]; 8.00 μg/mL,102 ± 2%
same,"Frozen, recovery relative to freshly prepared samples",[1]; 8.00 μg/mL,103 ± 3%
NCC[C@H](O)C(=O)N[C@@H]1C[C@H](N)[C@@H](O[C@H]2O[C@H](CN)[C@@H](O)[C@H](O)[C@H]2O)[C@H](O)[C@H]1O[C@H]1O[C@H](CO)[C@@H](O)[C@H](N)[C@H]1O [amikacin],MIC,[2]; [7],> 16 µg/mL
C[C@H]1[C@H](NC(=O)/C(=N\OC(C)(C)C(=O)O)c2csc(N)n2)C(=O)N1S(=O)(=O)O [aztreonam],MIC,[2],16 µg/mL
CO/N=C(\C(=O)N[C@@H]1C(=O)N2C(C(=O)[O-])=C(C[N+]3(C)CCCC3)CS[C@H]12)c1csc(N)n1 [cefepime],MIC,[2],> 32 µg/mL
CC(C)(O/N=C(\C(=O)N[C@@H]1C(=O)N2C(C(=O)[O-])=C(C[n+]3ccccc3)CS[C@H]12)c1csc(N)n1)C(=O)O [ceftazidime],MIC,[2]; [7],> 32 µg/mL
O=C(O)c1cn(C2CC2)c2cc(N3CCNCC3)c(F)cc2c1=O [ciprofloxacin],MIC,[2],> 4 µg/mL
CNC(C)C1CCC(N)C(OC2C(N)CC(N)C(OC3OCC(C)(O)C(NC)C3O)C2O)O1 (stereo not drawn) [gentamicin],MIC,[2]; [7],> 16 µg/mL
C[C@@H](O)[C@H]1C(=O)N2C(C(=O)O)=C(S[C@@H]3CN[C@H](C(=O)N(C)C)C3)[C@H](C)[C@H]12 [meropenem],MIC,[2]; [7],> 8 µg/mL
CN(C)c1ccc(O)c2c1C[C@H]1C[C@H]3[C@H](N(C)C)C(O)=C(C(N)=O)C(=O)[C@@]3(O)C(O)=C1C2=O [minocycline],MIC,[2]; [7],> 8 µg/mL
CCN1CCN(C(=O)N[C@@H](C(=O)N[C@@H]2C(=O)N3[C@@H]2SC(C)(C)[C@@H]3C(=O)O)c2ccccc2)C(=O)C1=O [piperacillin],MIC,[2]; [7],8 µg/mL
colistin,minimum inhibitory concentration,[2]; [7],≤ 1 µg/mL
same,colistin concentration in plasma,"[3]; day 7, approximately 20 h after administration of CMS (loading dose 250 mg)",7.85 µg/mL
same,colistin concentration in plasma,"[3]; day 8, ~24 h after dose, CMS 75 mg every 24 h",5.95 µg/mL
same,colistin concentration in plasma,"[3]; day 9, ~24 h after dose, CMS 75 mg every 24 h",3.91 µg/mL
same,colistin concentration in plasma,"[3]; day 12, ~24 h after dose, CMS 75 mg every 24 h",3.70 µg/mL
same,colistin concentration in plasma at the end of the HD session,"[3]; day 10, end of 3 h HD session",2.75 µg/mL
same,colistin concentration in plasma at the start of the HD session,"[3]; day 10, start of 3 h HD session",4.57 µg/mL
same,HD clearance (CLHD),[4],30.7 mL/min
same,"average steady-state concentration of colistin, median",[5]; [8],2.36 µg/mL
same,"average steady-state concentration of colistin, range",[5]; [8],0.48 to 9.38 µg/mL
same,"minimal concentration of colistin, median",[5]; [9],1.18 µg/mL
same,"minimal concentration of colistin, range",[5]; [9],0.16 to 5.99 µg/mL
same,"peak concentration of colistin, median",[5]; [9],1.81 µg/mL
same,"peak concentration of colistin, range",[5]; [9],0.16 to 6.12 µg/mL
colistin A,"Refrigerated, recovery relative to freshly prepared samples",[1]; 0.10 μg/mL,100 ± 1%
same,"Room temperature, recovery relative to freshly prepared samples",[1]; 0.10 μg/mL,102 ± 3%
same,"Freeze-thaw, recovery relative to freshly prepared samples",[1]; 0.10 μg/mL,97 ± 3%
same,"Frozen, recovery relative to freshly prepared samples",[1]; 0.10 μg/mL,105 ± 3%
same,"Refrigerated, recovery relative to freshly prepared samples",[1]; 8.00 μg/mL,100 ± 3%
same,"Room temperature, recovery relative to freshly prepared samples",[1]; 8.00 μg/mL,99 ± 2%
same,"Freeze-thaw, recovery relative to freshly prepared samples",[1]; 8.00 μg/mL,100 ± 2%
same,"Frozen, recovery relative to freshly prepared samples",[1]; 8.00 μg/mL,102 ± 2%
colistin B,"Refrigerated, recovery relative to freshly prepared samples",[1]; 0.10 μg/mL,102 ± 2%
same,"Room temperature, recovery relative to freshly prepared samples",[1]; 0.10 μg/mL,102 ± 2%
same,"Freeze-thaw, recovery relative to freshly prepared samples",[1]; 0.10 μg/mL,102 ± 3%
same,"Frozen, recovery relative to freshly prepared samples",[1]; 0.10 μg/mL,105 ± 2%
same,"Refrigerated, recovery relative to freshly prepared samples",[1]; 8.00 μg/mL,98 ± 3%
same,"Room temperature, recovery relative to freshly prepared samples",[1]; 8.00 μg/mL,101 ± 2%
same,"Freeze-thaw, recovery relative to freshly prepared samples",[1]; 8.00 μg/mL,99 ± 3%
same,"Frozen, recovery relative to freshly prepared samples",[1]; 8.00 μg/mL,100 ± 3%
colistin methanesulfonate [CMS],blood cultures after switching to CMS therapy,[6],negative
